{"source": "patent US4719235A", "about": "“Methods and compositions for treating viral infection” (Kern; Gerald N., priority 1985, dated 1988)", "key": {"[1]": {"tested_on": "Influenza A virus", "experiment": "Pretreatment of MDCK cells prior to exposure to Influenza A virus", "details": "0.1 mg/ml", "quoted_text": "(§2) Virus infectivity was determined by cytopathic effects (CPE).\nThe same procedure was used for this example as was used for Example 24 except that MDCK cells were substituted for HeLa cells and Influenza A virus was substituted for Respiratory Syncytial Virus. Two experiments were run."}, "[2]": {"tested_on": "Influenza A virus", "experiment": "Inactivation of Influenza A virus (CPE on MDCK cells)", "assay_type": "cell-based"}, "[3]": {"tested_on": "Respiratory syncytial virus (RSV)", "experiment": "Inactivation of Respiratory Syncytial Virus (CPE on HeLa cells)", "assay_type": "cell-based"}, "[4]": {"tested_on": "HSV-2", "experiment": "Titration of HSV-2 after contact with docusate sodium solutions containing 10% fetal calf serum", "assay_type": "cell-based, Herpes Simplex Type 2"}, "[5]": {"tested_on": "MA-104", "experiment": "Cytotoxicity in solutions free of serum, MA-104", "assay_type": "cell-based, monkey", "parameters": "key to MA-104 (toxicity): 0: Cells had normal morphology; 4+: >90% of cells showed CTE", "details": "24 hours, 37° C.", "quoted_text": "(§3) The cell lines used to evaluate cytotoxicity of docusate sodium were MA-104 derived from monkey kidneys, HeLa derived from human uterine carcinoma and primary fibroblasts from human foreskin. The cells were grown to confluency in 60×15 mm dishes. The cell monolayers were washed free of growth medium and 5 ml of serum-less growth medium containing docusate sodium at various concentrations was added. The curtures were incubated 24 hours at 37° C. and the cells then examined microscopically for cytotoxic effects (CTE). Controls were done in the same manner except that they were not exposed to docusate sodium."}, "[6]": {"experiment": "Cytotoxicity in solutions free of serum, MA-104", "assay_type": "cell-based, monkey", "parameters": "key to MA-104 (toxicity): 0: Cells had normal morphology; 4+: >90% of cells showed CTE", "details": "monkey, ma-104 cells, 0.2 mg/ml, 37° C., read-out: MA-104 (toxicity)", "quoted_text": "as §3"}, "[7]": {"tested_on": "selected cell lines (MA-104, HeLa, Foreskin)"}, "[8]": {"tested_on": "Adenovirus", "experiment": "Titration of Adenovirus after contact with docusate sodium solutions (HeLa cells)", "assay_type": "cell-based", "details": "0.2 mg/ml"}, "[9]": {"tested_on": "herpes virus", "experiment": "Recovery of herpes virus from a contaminated surface (glass slides; plaques on MA-104 cells)", "assay_type": "cell-based"}, "[10]": {"tested_on": "HeLa", "experiment": "Cytotoxicity in solutions free of serum, HeLa", "assay_type": "cell-based, human", "parameters": "key to HeLa (toxicity): 0: Cells had normal morphology; 4+: >90% of cells showed CTE", "details": "24 hours, 37° C.", "quoted_text": "as §3"}, "[11]": {"experiment": "Cytotoxicity in solutions free of serum, HeLa", "assay_type": "cell-based, human", "parameters": "key to HeLa (toxicity): 0: Cells had normal morphology; 4+: >90% of cells showed CTE", "details": "human, hela cells, 0.2 mg/ml, 37° C., read-out: HeLa (toxicity)", "quoted_text": "as §3"}, "[12]": {"tested_on": "Rotavirus", "experiment": "microbe, parasite or virus in culture", "assay_type": "cell-based", "details": "MA104, 0.25 h, pretreatment 15 minutes, read-out: % decrease in pfu"}, "[13]": {"tested_on": "MA-104", "experiment": "Cytotoxicity in solutions containing serum, MA-104", "assay_type": "cell-based, monkey", "parameters": "key: 0: Cells have normal morphology; 4+: >90% of cells showed CTE.; ±c: less than 10% of cells showed CTE", "details": "2% fetal calf serum, 24 hours, 37° C.", "quoted_text": "(§4) The cells were grown to confluency in 60×15 mm dishes. The cell monolayers were washed free of growth medium and 5 ml of serum-less growth medium containing docusate sodium at various concentrations was added. The curtures were incubated 24 hours at 37° C. and the cells then examined microscopically for cytotoxic effects (CTE). Controls were done in the same manner except that they were not exposed to docusate sodium.\n(§5) The same procedure that was used for Example 17 was used for this Example except that the medium used for growing the cells contained 2% by volume fetal calf serum."}, "[14]": {"details": "cited from earlier work"}, "[15]": {"tested_on": "HSV-2", "experiment": "Treatment of MA-104 cells infected with HSV-2", "assay_type": "cell-based, Herpes Simplex Type 2", "details": "0.02 mg/ml for one hour at 37° C., 6 and 24 hours after infection", "procedure": "MA-104 cells were washed free of growth medium and exposed to appropriately diluted HSV-2 for one hour at 37° C. At 6 and 24 hours after infection, the MA-104 cells were exposed to a solution containing 0.02 mg of docusate sodium per ml of solution for one hour at 37° C. The docusate sodium solution was poured off, agar overlay added, and the exposed cells incubated for 3 days at 37° C. to provide for plaque development."}, "[16]": {"tested_on": "Adenovirus", "experiment": "Pretreatment of HeLa cells prior to exposure to Adenovirus", "assay_type": "cell-based", "details": "0.125 mg/ml in 10% fetal calf serum MEM", "procedure": "(§1) HeLa cells were washed free of growth medium and the cells were exposed to 0.125 mg/ml docusate sodium in 10% fetal calf serum MEM for 15 minutes. The docusate sodium solution was poured off, the cells rinsed with phosphate buffered saline and then exposed to appropriately diluted Adenovirus. A control solution prepared as above except for exposure to docusate sodium was also provided. After one hour at 37° C., the cells were overlayed with agar and incubated for 3 days at 37° C. to allow plaques to develop."}, "[17]": {"tested_on": "primary fibroblasts from human foreskin", "experiment": "Cytotoxicity in solutions containing serum, foreskin fibroblasts", "assay_type": "cell-based", "parameters": "key to Foreskin (Cytotoxic effect): 0: Cells have normal morphology; 4+: >90% of cells showed CTE.; ±c: less than 10% of cells showed CTE", "details": "0.01 mg/ml, 2% fetal calf serum, 24 hours, 37° C.", "quoted_text": "as §4, §5"}, "[18]": {"experiment": "Cytotoxicity in solutions containing serum, foreskin fibroblasts", "assay_type": "cell-based, human", "parameters": "key to Foreskin (Cytotoxic effect): 0: Cells have normal morphology; 4+: >90% of cells showed CTE.; ±c: less than 10% of cells showed CTE", "details": "human, foreskin fibroblasts, 2% fetal calf serum, 37° C., read-out: Foreskin (Cytotoxic effect)", "quoted_text": "as §4, §5"}, "[19]": {"tested_on": "HSV-2", "experiment": "Pretreatment of MA-104 cells prior to exposure to HSV-2", "assay_type": "cell-based, Herpes Simplex Type 2", "details": "0.02 mg/ml", "procedure": "In this Example the effect that initially contacting (pretreating) MA-104 cells with docusate sodium has on subsequent exposure of such pretreated cells to HSV-2 virus was studied.\nas §1, with “MA-104” for “HeLa”, “0.02” for “0.125”, “serum-less growth medium” for “10% fetal calf serum MEM”, “one hour.” for “15 minutes.”, “washed twice,” for “rinsed with phosphate buffered saline”, “HSV-2.” for “Adenovirus.”"}, "[20]": {"tested_on": "Coxsackievirus B-5", "experiment": "Pretreatment of MA-104 cells prior to exposure to Coxsackievirus B-5", "assay_type": "cell-based"}, "[21]": {"tested_on": "Respiratory Syncytial Virus", "experiment": "Pretreatment of HeLa cells prior to exposure to Respiratory Syncytial Virus", "assay_type": "cell-based", "quoted_text": "The same procedure was used for this example as was used for Example 21 except that HeLa cells were substituted for MA-104 cells, the docusate sodium solution contained 0.1 mg/ml of docusate sodium, and Respiratory Syncytial Virus was substantial for Rotavirus. Three experiments were run.\nas §2"}, "[22]": {"tested_on": "Coxsackievirus B-5", "experiment": "Titration of Coxsackievirus B-5 after contact with docusate sodium solutions", "assay_type": "cell-based", "details": "0.2 mg/ml"}}}
{"smiles": "CCCCC(CC)COC(=O)CC(C(=O)OCC(CC)CCCC)S(=O)(=O)O", "note": "(centres unmarked) [docusate sodium, 1,4-bis(2-ethylhexyl)sodium sulfosuccinate]", "values": [{"measurement": "Presence of CPE", "setting": "[1]; experiment 1, virus dilution 10^-1 (control +)", "result": "-"}, {"measurement": "Presence of CPE", "setting": "[1]; experiment 1, virus dilution 10^-2 (control +)", "result": "-"}, {"measurement": "Presence of CPE", "setting": "[1]; experiment 1, virus dilution 10^-3 (control -)", "result": "-"}, {"measurement": "Presence of CPE", "setting": "[1]; experiment 1, virus dilution 10^-4 (control -)", "result": "-"}, {"measurement": "Presence of CPE", "setting": "[1]; experiment 2, virus dilution 10^-2 (control +)", "result": "-"}, {"measurement": "Presence of CPE", "setting": "[1]; experiment 2, virus dilution 10^-3 (control -)", "result": "-"}, {"measurement": "Presence of CPE", "setting": "[1]; experiment 2, virus dilution 10^-4 (control -)", "result": "-"}, {"measurement": "Presence of CPE", "setting": "[2]", "result": "-"}, {"measurement": "inactivation of Influenza A virus (conclusion)", "setting": "[2]", "result": "readily inactivated"}, {"measurement": "Presence of CPE", "setting": "[3]", "result": "-"}, {"measurement": "inactivation of RSV (conclusion)", "setting": "[3]", "result": "RSV was inactivated"}, {"measurement": "concentration required for a given percentage of HSV-2 inactivation (conclusion)", "setting": "[4]; 10% fetal calf serum vs serum absent", "result": "higher concentrations of docusate sodium were required"}, {"measurement": "killing at 10 µg/mL", "setting": "[4]; Human alphaherpesvirus 2, 0.25 h, 0.01 mg/ml, 10% fetal calf serum, 15 min, 37° C., read-out: % Inactivation of HSV-2", "result": 10, "unit": "%"}, {"measurement": "killing at 100 µg/mL", "setting": "[4]; Human alphaherpesvirus 2, 0.25 h, 0.1 mg/ml, 10% fetal calf serum, 15 min, 37° C., read-out: % Inactivation of HSV-2", "result": 10, "unit": "%"}, {"measurement": "killing at 200 µg/mL", "setting": "[4]; Human alphaherpesvirus 2, 0.25 h, 0.2 mg/ml, 10% fetal calf serum, 15 min, 37° C., read-out: % Inactivation of HSV-2", "result": 95, "unit": "%"}, {"measurement": "MA-104 (toxicity)", "setting": "[5]; 0.01 mg/ml", "result": 0}, {"measurement": "MA-104 (toxicity)", "setting": "[5]; 0.05 mg/ml", "result": "4+ (>90% of cells showed CTE.)"}, {"measurement": "MA-104 (toxicity)", "setting": "[5]; 0.1 mg/ml", "result": "4+ (>90% of cells showed CTE.)"}, {"measurement": "cytotoxicity at 24 h", "setting": "[6]", "result": "> 90", "unit": "%"}, {"measurement": "effect of serum on cytotoxicity (conclusion)", "setting": "[7]", "result": "presence of serum reduced the cytotoxicity"}, {"measurement": "relative sensitivity of cell lines (conclusion)", "setting": "[7]", "result": "MA-104 cells were less sensitive to docusate sodium than were HeLa and foreskin fibroblast cells"}, {"measurement": "effect on Adenovirus replication (conclusion)", "setting": "[8]; contact time 60 minutes", "result": "did not have a significant effect on Adenovirus replication"}, {"measurement": "pfu/ml", "setting": "[8]; exposure time 60 minutes (control 180,000)", "result": "150,000 pfu/ml"}, {"measurement": "killing at 200 µg/mL", "setting": "[8]; unidentified adenovirus, HeLa, 1 h, exposure time 60 minutes, read-out: % Inactivation", "result": 17, "unit": "%"}, {"measurement": "plaque forming units", "setting": "[9]; 0.4% in phosphate buffered saline (control 41,250; control smear 13,500)", "result": 0, "unit": "plaque forming units"}, {"measurement": "recovery of viruses (conclusion)", "setting": "[9]; smears scrubbed off with 0.4% solution", "result": "no viruses were recovered"}, {"measurement": "HeLa (toxicity)", "setting": "[10]; 0.01 mg/ml", "result": 0}, {"measurement": "HeLa (toxicity)", "setting": "[10]; 0.05 mg/ml", "result": "4+ (>90% of cells showed CTE.)"}, {"measurement": "HeLa (toxicity)", "setting": "[10]; 0.1 mg/ml", "result": "4+ (>90% of cells showed CTE.)"}, {"measurement": "cytotoxicity at 24 h", "setting": "[11]", "result": "> 90", "unit": "%"}, {"measurement": "inhibition at 40 µg/mL", "setting": "[12]; 0.04 mg/ml", "result": 10, "unit": "%"}, {"measurement": "inhibition at 50 µg/mL", "setting": "[12]; 0.05 mg/ml", "result": 70, "unit": "%"}, {"measurement": "MA-104 (Cytotoxic effect)", "setting": "[13]; 0.01 mg/ml", "result": 0}, {"measurement": "MA-104 (Cytotoxic effect)", "setting": "[13]; 0.02 mg/ml", "result": 0}, {"measurement": "MA-104 (Cytotoxic effect)", "setting": "[13]; 0.03 mg/ml", "result": 0}, {"measurement": "MA-104 (Cytotoxic effect)", "setting": "[13]; 0.04 mg/ml", "result": 0}, {"measurement": "solubility in alcohol", "setting": "[14]; alcohol", "result": "freely soluble in alcohol"}, {"measurement": "solubility in water", "setting": "[14]; water", "result": "slowly soluble in water"}, {"measurement": "inactivation of HSV-2 in cells infected prior to contact (conclusion)", "setting": "[15]", "result": "not effective in inactivating HSV-2 virus in cells infected with HSV-2"}, {"measurement": "plaque forming units/ml", "setting": "[16]; pretreatment 15 minutes (control 180,000)", "result": "175,000 pfu/ml"}, {"measurement": "inhibition at 125 µg/mL", "setting": "[16]; unidentified adenovirus, HeLa, 0.25 h, pretreatment 15 minutes, read-out: % decrease in pfu", "result": 3, "unit": "%"}, {"measurement": "Foreskin (Cytotoxic effect)", "setting": "[17]", "result": 0}, {"measurement": "cytotoxicity at 24 h", "setting": "[18]; 0.02 mg/ml", "result": "< 10", "unit": "%"}, {"measurement": "cytotoxicity at 24 h", "setting": "[18]; 0.03 mg/ml", "result": "> 90", "unit": "%"}, {"measurement": "cytotoxicity at 24 h", "setting": "[18]; 0.04 mg/ml", "result": "> 90", "unit": "%"}, {"measurement": "plaque formation (conclusion)", "setting": "[19]; pretreatment", "result": "substantial drop in plaque formation"}, {"measurement": "plaque forming units/ml (pfu/ml)", "setting": "[19]; pretreatment one hour, serum-less (control 548)", "result": 26, "unit": "pfu/ml"}, {"measurement": "inhibition at 20 µg/mL", "setting": "[19]; Human alphaherpesvirus 2, MA104, 1 h, pretreatment one hour, serum-less, read-out: % decrease in pfu", "result": 95, "unit": "%"}, {"measurement": "effect on plaque formation (infectivity) (conclusion)", "setting": "[20]; 0.02 mg/ml, pretreatment", "result": "no effect on plaque formation (infectivity)"}, {"measurement": "pfu/ml", "setting": "[20]; .02 mg/ml, pretreatment 15 minutes (control 1,000,000)", "result": "1,800,000 pfu/ml"}, {"measurement": "Presence of CPE", "setting": "[21]", "result": "- and +"}, {"measurement": "protection of HeLa cells against RSV infection (conclusion)", "setting": "[21]", "result": "confers partial protection on HeLa cells against RSV infection"}, {"measurement": "inactivation of Coxsackievirus B-5 (conclusion)", "setting": "[22]", "result": "did not inactivate Coxsackievirus B-5"}, {"measurement": "pfu/ml", "setting": "[22]; exposure time 0 minutes (control 30,000)", "result": "12,500 pfu/ml"}, {"measurement": "pfu/ml", "setting": "[22]; exposure time 15 minutes", "result": "23,000 pfu/ml"}, {"measurement": "pfu/ml", "setting": "[22]; exposure time 60 minutes (control 25,500)", "result": "30,000 pfu/ml"}]}
